Source: patent US5451518A, “Purified human ceramide-activated protein kinase” (Sloan-Kettering Institute for Cancer Research, priority 1992, dated 1995)
“Also recorded” adds a separate entry of the source. Where two headings read alike, the source gives them in different places.

How the values were obtained:
[1] = system: ceramide-activated protein kinase
Experimental: Homogenates were centrifuged at 500×g for 5 minutes to remove nuclei and at 200,000×g for 30 minutes to prepare microsomal membranes. Membranes were resuspended into homogenizing buffer (2.2 μg membrane protein μl^-1). For assay of kinase activity, the reaction mixture contained 20 μl of microsomal membrane, 40 μl EGFR peptide (4 mg ml^-1 in 25 mM Hepes, pH 7.4) and 100 μl buffer (50 mM HEPES, pH 7.4, 20 mM MgCl2) (40). Phosphorylation was initiated at 22° C. by addition of 40 μl [γ-^32 P] ATP (100 μM final concentration) and terminated at the indicated times by addition of 40 μl of 0.5M ATP in 90% formic acid. Phosphorylated peptide was eluted from a C18 Sep pak cartridge (Millipore), lyophilized, and resolved by C18 reverse phase HPLC using a linear gradient of acetonitrile. […] All assays were performed under conditions determined as linear for time and enzyme concentration. Enzyme activity was determined from the percent conversion of substrate to product and the specific radioactivity of [γ-^32 P] ATP. […] Values (mean ± range) represent duplicate determinations from two experiments.
Activity was measured by the transfer of ^32 P from the γ-position of ATP to EGFR peptide (AA 663-681 of the EGFR). The effect of IL-1β on kinase activity was determined using microsomal membranes derived from cells stimulated with IL-1β.

[2] = system: ceramide-activated protein kinase; conditions: for effect on EGFR peptide phosphorylation (in words): A-431
[3] = system: ceramide-activated protein kinase; conditions: HL-60; cholera toxin 10 nM, retinoic acid 0.5 μM, butyrate 0.5 mM
[4] = system: epidermal growth factor receptor (EGFR); conditions: A-431 cells; cited from earlier work
[5] = system: A-431 human epidermoid carcinoma cells; conditions: A-431 cells; cited from earlier work
[6] = system: ceramide-activated protein kinase; assay: Phosphoamino acid analysis of phosphorylated EGFR peptide; type: biochemical, human; conditions: A-431
Excerpt: Reactions were done, and phosphorylated peptide was quantified as for FIG. 2. (Left) HPLC elution profile of samples with or without the EGFR peptide. (Right) Phosphoamino acid analysis of the phosphorylated peptide purified by HPLC. Phosphorylated amino acids (Y, […]; T, threonine; S, serine) were resolved by one-dimensional thin-layer electrophoresis and identified by ninhydrin staining of carrier phosphoamino acids and autoradiography.
To determine which amino acid was phosphorylated, phosphoamino acid analysis of the peptide was done. The phosphopeptide peak obtained by HPLC was subjected to partial acid hydrolysis (1 hr at 110° C. in 6M HCl). The hydrolysates were dried, resuspended in 250 μl of water, and applied to a Dowex AG1-X8 column (Bio-Rad). Amino acids were eluted with 0.5M HCl, dried, and analyzed by thin-layer electrophoresis, according to methods well known to those skilled in the art (26). Individual phosphoamino acids were identified by ninhydrin staining of carrier phosphoamino acids and by autoradiography.

[7] = system: ceramide-activated protein kinase; conditions: cited from earlier work
HL-60 cells [8] = conditions: cited from earlier work
HL-60 cells [9] = conditions: cited from earlier work; remark: listed apart in the source

## CCCCCCCCCCCCC/C=C/[C@@H](O)[C@@H](N)CO [sphingosine]
[1]; 10 nM to 1 μM
  enhancement of kinase activity: 1.5-2.5 of control
[2]
  effect on EGFR peptide phosphorylation (in words): similarly effective
[2]; sphingosine (0.001-3 μM), 2 minutes
  stimulation of EGFR peptide phosphorylation: 1.6 fold of control
[3]
  effect on kinase activity (in words): similarly as effective as C8-cer
[4]
  EGFR phosphorylation on Thr-669: enhanced phosphorylation of the EGFR on Thr-669; also recorded: stimulated phosphorylation of the EGFR on Thr-669; also recorded: induced epidermal growth factor receptor (EGFR) phosphorylation on Thr-669
[5]
  conversion to ceramide: rapidly converted to ceramide

## Ceramide
[6]
  phosphorylated residue: exclusively on the threonine residue
[2]; 2 minutes
  lowest effective concentration: 1 nM
[2]
  effect on EGFR peptide phosphorylation (in words): Only membrane activity was enhanced
[2]; listed as natural ceramide (Sigma type III)
  effect on EGFR peptide phosphorylation (in words): similarly effective
[2]; a-431 cells, 0.5 min, 0.5 µM
  increase in kinase activity: 2 -fold
[2]; a-431 cells, 2 min, 1 µM
  maximal effect on EGFR peptide phosphorylation: 2.1 -fold of control
[2]; abstract
  lowest effective concentration: 1 nM
[2]; ceramide 0.5 μM
  duration of stimulation of kinase activity: at least 15 minutes
  time at which stimulation of EGFR peptide phosphorylation was evident: ≤ 30 s
[2]; peptide phosphorylation, 2 minutes
  concentration for maximal effect: 1 µM
[2]; read-out: ED50 for EGFR peptide phosphorylation, 2 minutes
  EC50: ~0.03 µM
[3]
  effect on kinase activity (in words): induced a similar effect
[7]; ceramide 0.001 to 3 μM
  maximum enhancement of kinase activity: two-fold of the control
[4]
  EGFR phosphorylation on Thr-669: induced identical effects; also recorded: induced identical phosphorylation

## NH2 -Glu-Leu-Val-Glu-Pro-Leu-Thr-Pro-Ser-Gly-Glu-Ala-Pro-Asn-Gln-Ala-Leu-Leu-Arg-COOH (H-ELVEPLTPSGEAPNQALLR-OH) [EGFR peptide, EGFR peptide (amino acids 663-681)]
[1]; EL-4, baseline
  maximum reaction velocity: 12.5 pmol min^-1 mg^-1 of microsomal membrane protein
[1]; EL-4 microsomal membrane, baseline
  Michaelis constant (Km) for EGFR peptide: 0.15 mg/mL
[6]
  phosphorylated residue: only threonine-669 served as substrate
[2]; A-431, 5 minutes
  Apparent Km for EGFR peptide: 0.25 mg/mL
[2]; A-431, EGFR peptide substrate
  Apparent Vmax: 100-200 pmol.min^-` /mg of protein^-1
[7]; EGFR peptide substrate
  maximum velocity (V°max): 50 to 100 pmol per minute per milligram (pmol min^-1 mg^-1) of protein
[7]; nuclei-free supernates
  Michaelis constant (Km) for peptide: 0.25 mg/mL

B1: γ interferon: factor that induces monocytic differentiation of HL-60 cells (protein, UniProt P01579 24-161, looked up)
Interferon gamma: QDPYVKEAENLKKYFNAGHSDVADNGTLFLGILKNWKEESDRKIMQSQIVSFYFKLFKNFKDDQSIQKSVETIKEDMNVKFFNSNKKKRDDFEKLTNYSVTDLNVQRKAIHELIQVMAELSPAAKTGKRKRSQMLFRG
HL-60 cells [8]
  sphingomyelin degradation to ceramide / ceramide level (in words): stimulate sphingomyelin degradation to ceramide
HL-60 cells [9]
  monocytic differentiation: induce monocytic differentiation
